Data: PMC3082566, “PTB Domain-Directed Substrate Targeting in a Tyrosine Kinase from the Unicellular Choanoflagellate Monosiga brevicollis” (PLoS ONE, 2011)

Tests used:
[1] = tested on: HMTK1; experiment: Phosphorylation of SH2-binding substrates with varying spacer lengths by HMTK1 (phosphocellulose paper assay); format: biochemical, Monosiga brevicollis; conditions: 70 µM peptides; spacer of 11 residues; 6 minutes at 30°C; Fig. 2B
Method: (§1) HMTK1 was expressed in Spodoptera frugiperda (Sf9) insect cells using the Bac-to-Bac system (Invitrogen). Sf9 cells (800 ml) were infected with HMTK1 baculovirus and harvested after three days. Cells were lysed in a French pressure cell, and His-tagged HMTK1 was purified using nickel-nitrilotriacetic acid resin (Qiagen), as described previously. Peak fractions were pooled and concentrated in an Amicon Ultrafiltration device (molecular weight cutoff: 30,000 daltons). The purified protein was stored in 40% glycerol at −20°C. The isolated PTB domain of HMTK1 was produced as a fusion with glutathione S-transferase (GST). E. coli cells (1 liter) expressing the GST fusion protein were lysed in a French pressure cell, and the GST-PTB protein was purified by chromatography on a glutathione-agarose column (Molecular Probes).
Kinase assays were performed by two methods. Initial activity measurements were performed by the phosphocellulose paper binding assay. […] Kinetic constants were determined by nonlinear fitting to the [substrate] vs. velocity curves using GraphPad Prism 4.
Figure 2 Additional HMTK1 peptide phosphorylation assays. Reactions proceeded for 6 minutes at 30°C, and enzyme activity was measured using the phosphocellulose paper assay. […]

[2] = tested on: HMTK1; experiment: Phosphorylation of peptide substrates by purified HMTK1 (phosphocellulose paper assay); format: biochemical, Monosiga brevicollis; conditions: 6 minutes at 30°C; for HMTK1 activity toward peptide (comparison of c-Src and Monosiga-derived peptides): 750 µM peptide, 400 nM HMTK1, pH 7.4, phosphocellulose paper assay, Fig. 2A
Method: as §1
Kinase assays were performed by two methods. Initial activity measurements were performed by the phosphocellulose paper binding assay. Reaction mixtures contained 20 mM Tris-HCl (pH 7.4), 10 mM MgCl2, 0.2 mM ATP, [γ-^32P]-ATP (30–50 cpm/pmol), and varying amounts of HMTK1 and peptide substrates. All peptide substrates were purified by high pressure liquid chromatography and characterized by mass spectrometry prior to use. […] Initial rate kinetic measurements on the PTB ligand-containing substrate ([…]pYATLG) and on the Phe-containing PTB control ([…]) were carried out using a continuous spectrophotometric assay. Reactions were performed at 30°C in a final volume of 50 µl. The reactions contained 100 mM Tris pH 7.4, 10 mM MgCl2, 2 mM ATP, 1.5 mM phosphoenolpyruvate, 90 units/ml of pyruvate kinase, 109 units/ml of lactate dehydrogenase, and 1.2 mg/ml of NADH. For determination of Km values, the enzyme concentrations were 0.3–0.5 µM and the peptide concentrations ranged from 0–700 µM. Kinetic constants were determined by nonlinear fitting to the [substrate] vs. velocity curves using GraphPad Prism 4.
Figure 1 Monosiga brevicollis HMTK1 kinase. (A) Domain arrangement of HMTK1. (B) Amino acid sequence of the PTB-kinase HMTK1 construct used in this study. The HMD motif in the catalytic loop is underlined. (C) Tyrosine kinase activity of HMTK1. […] Reactions proceeded for 6 minutes at 30°C, and enzyme activity was measured using the phosphocellulose paper assay.
Figure 2 Additional HMTK1 peptide phosphorylation assays. Reactions proceeded for 6 minutes at 30°C, and enzyme activity was measured using the phosphocellulose paper assay. […] (B) Phosphorylation of SH2-binding substrates containing various spacer lengths between the pY residue and the phosphorylatable tyrosine. The peptides are shown schematically, with the phosphorylation site in blue, the SH2-binding ligand (pYEEI) in red, and the number of intervening amino acids in a box. The sequences of the peptides are: […]pYEEIG (spacer = 11), […]pYEEIG (spacer = 7), and […]pYEEIG (spacer = 3); SH2 control substrate, […] (spacer = 11); substrate peptide, […]. Reactions contained 70 µM peptides. Error bars show standard deviation.

[3] = tested on: FLAG-tagged wild-type HMTK1; experiment: Pulldown of FLAG-tagged wild-type HMTK1 from SYF cell lysates with immobilized peptides; format: binding, Monosiga brevicollis; conditions: immobilized peptide; anti-FLAG Western; Fig. 3C
Method: For expression in insect cells, HMTK1 DNA (encoding residues 341–761) was cloned into the EcoRI site of pFastbac-Hta (Invitrogen). FLAG-tagged HMTK1 was expressed in mammalian cells by subcloning into the BglII and BamHI sites of p3XFLAG-CMV (Sigma). The ΔPTB version of this construct was prepared by PCR amplification and subsequent recloning into the BamHI and EcoRI sites of p3XFLAG-CMV. Site-directed mutagenesis of FLAG-HMTK1 was carried out using the QuikChange kit (Stratagene). To express the isolated third PTB domain (residues 341–474) in bacterial cells, this PCR fragment was cloned into the EcoRI site of plasmid pGEX-4T-1 (GE Healthcare). All constructs were confirmed by DNA sequencing.
The PTB ligand-containing peptide, Phe-containing PTB control, and pYEEI peptide (EPQpYEEIG) were linked to Affi-Gel 15 resin (Bio-Rad) following the manufacturer's protocols. Purified HMTK1 or the isolated PTB domain were incubated for 1 hour at 4°C with the immobilized peptides. […]
Figure 3 Binding reactions with pYEEI-containing peptide. […] Bound proteins were eluted with SDS-PAGE sample buffer and analyzed by gel electrophoresis with Coomassie blue staining. […] After washing, bound proteins were eluted with SDS-PAGE sample buffer and analyzed by Western blotting with anti-GST antibody. […] After washing, bound proteins were analyzed by anti-FLAG Western blotting. […]

[4] = tested on: MbSrc1; conditions: ref [13], [14]; cited from earlier work
[5] = tested on: MbSrc4; conditions: ref [13], [14]; cited from earlier work
[6] = target: SH2 binding substrate, spacer = 11 (…pYEEIG)
Chain of SH2 binding substrate, spacer = 11 (…pYEEIG) (peptide, as listed by the source): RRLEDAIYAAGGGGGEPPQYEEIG

[7] = target: PTB ligand-containing substrate (…pYATLG)
Chain of PTB ligand-containing substrate (…pYATLG) (peptide, as listed by the source): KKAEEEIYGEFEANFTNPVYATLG

[8] = target: Phe-containing PTB control substrate (…)
[9] = tested on: HMTK1; experiment: Co-expression of HMTK1 with mammalian receptor tyrosine kinases: binding or phosphorylation; format: cell-based, Monosiga brevicollis; conditions: data not shown
[10] = tested on: HMTK1; experiment: Binding of purified HMTK1 to immobilized PTB ligand peptides; set-up: species or system Monosiga brevicollis; conditions: 6.6 µg HMTK1; peptide on Affi-Gel resin; 1 hour at 4°C; anti-His6 Western; Fig. 5A
Method: The PTB ligand-containing peptide, Phe-containing PTB control, and pYEEI peptide (EPQpYEEIG) were linked to Affi-Gel 15 resin (Bio-Rad) following the manufacturer's protocols. Purified HMTK1 or the isolated PTB domain were incubated for 1 hour at 4°C with the immobilized peptides. After binding, the beads were washed 4 times with 1 ml of binding buffer (50 mM Tris-HCl pH 7.5, 5 mM EDTA, 100 mM NaCl, 0.1% Triton X-100, 1 mM DTT, 0.5 mM Na3VO4). Bound proteins were eluted with SDS-PAGE loading buffer, separated by 10% SDS-PAGE, and visualized either by Coomassie blue staining or by Western blotting.
Figure 5 Substrate targeting by PTB ligand. (A) Purified HMTK1 (6.6 µg) was incubated with PTB ligand-containing substrate ([…]pYATLG), PTB control substrate ([…]), pYEEI peptide, or control resin in final volumes of 60 µl. After washing, bound proteins were eluted with SDS-PAGE sample buffer and analyzed by Western blotting with anti-His6-tag antibody. (B) The kinase activity of HMTK1 (300 nM) toward the PTB ligand-containing substrate or PTB control substrate (shown schematically) was determined using the phosphocellulose paper assay. The reaction contained 20 mM Tris-HCl (pH 7.4), 10 mM MgCl2, 0.2 mM ATP, 30 µM peptide, and [γ-^32P]-ATP. […] Incorporation of ^32P into the peptides was determined by scintillation counting.

[11] = tested on: HMTK1; experiment: Steady-state kinetics, continuous spectrophotometric assay; format: biochemical, Monosiga brevicollis; conditions: HMTK1 0.3–0.5 µM; peptide 0–700 µM; 100 mM Tris pH 7.4, 10 mM MgCl2, 2 mM ATP; 30°C; nonlinear fitting
Method: Kinase assays were performed by two methods. Initial activity measurements were performed by the phosphocellulose paper binding assay. Reaction mixtures contained 20 mM Tris-HCl (pH 7.4), 10 mM MgCl2, 0.2 mM ATP, [γ-^32P]-ATP (30–50 cpm/pmol), and varying amounts of HMTK1 and peptide substrates. All peptide substrates were purified by high pressure liquid chromatography and characterized by mass spectrometry prior to use. The following substrates were used: c-Src peptide, […]; MbSTAT peptide, […]; RTKB2 peptide 1, […]; RTKB2 peptide 2, […]; SH2 binding substrates (varying linker lengths), […]pYEEIG, […]pYEEIG, and […]pYEEIG; SH2 control substrate, […]. Initial rate kinetic measurements on the PTB ligand-containing substrate ([…]pYATLG) and on the Phe-containing PTB control ([…]) were carried out using a continuous spectrophotometric assay. Reactions were performed at 30°C in a final volume of 50 µl. The reactions contained 100 mM Tris pH 7.4, 10 mM MgCl2, 2 mM ATP, 1.5 mM phosphoenolpyruvate, 90 units/ml of pyruvate kinase, 109 units/ml of lactate dehydrogenase, and 1.2 mg/ml of NADH. For determination of Km values, the enzyme concentrations were 0.3–0.5 µM and the peptide concentrations ranged from 0–700 µM. Kinetic constants were determined by nonlinear fitting to the [substrate] vs. velocity curves using GraphPad Prism 4.

Substance: RRLEDAIYAAGGGGGEPPQpYEEIG [SH2-binding substrate]
- phosphorylation relative to control sequence lacking phosphotyrosine [1]: 5 fold
- phosphorylation relative to shortened peptide containing only the substrate motif [1]: 5 fold

Substance: KKKASGYVMADIA [MbSTAT peptide, from a putative M. brevicollis STAT]
- HMTK1 activity toward peptide (comparison of c-Src and Monosiga-derived peptides) [2]: no significant activity

Substance: LRRApSLG [phospho-Kemptide, immobilized phosphoserine-containing peptide]
- binding to wild-type HMTK1 (SYF lysate) [3]: failed to bind

Substance: SEEVYGAVVDKKK [RTKB2 peptide 1]
- MbSrc1 activity compared with the c-Src peptide [4]: substantially higher activities
- HMTK1 activity toward peptide (comparison of c-Src and Monosiga-derived peptides) [2]: roughly equivalent activity
- MbSrc4 activity compared with the c-Src peptide [5]: substantially higher activities

Substance: His-tagged HMTK1 PTB-kinase construct (residues 341-761) (enzyme)
- other [6]: 5 fold
- Km of peptide phosphorylation by HMTK1 (continuous spectrophotometric assay, 30°C) [7]: 33 µM
- Km of peptide phosphorylation by HMTK1 (continuous spectrophotometric assay, 30°C) [8]: 450 µM

Substance: AEEEIYGEFEAKKKG [c-Src peptide, acidophilic Src peptide, reference compound]
- HMTK1 activity toward peptide (comparison of c-Src and Monosiga-derived peptides) [2]: roughly equivalent activity
- phosphorylation of peptide by HMTK1 ([2]; 32P-labeled ATP, 500 µM peptide, 20 mM Tris-HCl pH 7.4, 10 mM MgCl2, 0.2 mM ATP, Fig. 1C): phosphorylated this peptide efficiently

Substance: ErbB2: mammalian receptor tyrosine kinase
- binding or phosphorylation by co-expressed HMTK1 [9]: failed to bind or phosphorylate

Substance: KKAEEEIYGEFEANFTNPVFATLG [Phe peptide, control peptide in which the pTyr residue was replaced with Phe]
- binding to purified HMTK1 [10]: undetectable
- Km [11]: 450 µM

Substance: IGF1R: mammalian receptor tyrosine kinase
- binding or phosphorylation by co-expressed HMTK1 [9]: failed to bind or phosphorylate

Substance: AEEVYEAIADKKK [RTKB2 peptide 2]
- MbSrc1 activity compared with the c-Src peptide [4]: substantially higher activities
- HMTK1 activity toward peptide (comparison of c-Src and Monosiga-derived peptides) [2]: highest activity
- MbSrc4 activity compared with the c-Src peptide [5]: substantially higher activities
